The source of these data is patent US20070059720A9 (priority 2004, published 2007).

The structures appear in SMILES notation.

The test system of one test is ERα. The test is described as follows: Immunoblot of phospho-S118 ERα and total ERα in MCF-7 transfectants. To be noted: for total ERα protein level: control transfected and MKP3 overexpressing cells. Format: cell-based, human. Here is the method:
(§1) Cells grown in 100 mm dishes were starved in phenol red-free (PRF), serum-free MEM (Specialty Media, Phillipsburg, N.J.) for 48 hours, and were then treated for 2 hours with vehicle (ethanol), estrogen (100 nM, 20), or OHT (100 nM). After treatment, cells were rinsed twice with ice-cold phosphate-buffered saline (PBS) and were then lysed immediately with 200 μl of cell lysis buffer (20 mM Tris HCl, pH 7.4, 150 mM NaCl, 1 mM B-glycerophosphate, 1 mM sodium orthovanadate, and 10% glycerol plus 1:100 proteinase inhibitor cocktail III) (Calbiochem, LaJolla, Calif.) per 100 mm tissue culture. The cell lysates were cleared by centrifugation at 16,100×g for 10 minutes at 4° C. Protein concentration was determined with the BCA Protein Assay kit (Pierce, Rockfold, Ill.) according to the manufacturer's directions. Equal amount of cell extracts were resolved under denaturing conditions by electrophoresis in 8-10% polyacrylamide gels containing sodium dodecyl sulfate (SDS-PAGE), and transferred to nitrocellulose membranes by electroblotting (Schleicher & Schuell, Keene, NH). After blocking of the transferred nitrocellulose membrane with TBST (20 mM Tris pH 7.6, 150 mM NaCl, 0.1% Tween-20) supplemented with 5% non-fat milk for 1 hour at room temperature, the membrane was incubated with primary antibodies either for 1 hour at room temperature (anti-ERα, 1:100 dilution; anti-AIB1, 1:100 dilution; anti-ERK2, 1:500 dilution; anti-Cyclin D1,1:500 dilution; anti-PR, C-19, 1:200 dilution; anti-p190, 1:1000 dilution; anti-V5, 1:5000 dilution), or overnight at 4° C. (anti-phospho MAPK, 1:1000 dilution; anti-phosphor-Ser118-ERα; 1:1000 dilution; MAPK p42/44, 1:1000 dilution), incubated with secondary antibodies for 1 hour at room temperature and then developed with Enhanced Chemiluminescence Reagents (Amersham Pharmacia Biotech, Piscataway, N.J.).
A general note: Immunoblotting shows a protein as a band on a membrane.

Test [1] deals with MCF-7 vector control cells. The experiment in a line: Anchorage-independent soft agar colony formation, MCF-7 vector control cells. To be noted: MCF-7 vector control cells; 1 nM estradiol or 100 nM 4-OH-Tam; 14 days. It is filed as cell-based, human. As for the experimental part: Cells were starved for 2 days in PRF MEM (InVitrogen) supplemented with 5% fetal bovine serum (FBS, Summit Biotechnology, Fort Collins, Colo.), 6 ng/ml insulin, 200 units/ml penicillin, and 200 μg/ml streptomycin. Soft agar assays were performed in sixwell plates. Into each well, 1.5 ml of prewarmed (50° C.) 0.7% SeaPlaque agarose (FMC, Rockland, Me.) was added and dissolved in PRF MEM supplemented with 5% charcoal stripped FBS (Summit, Fort Collins, Colo.) to serve as the bottom layer, and allowed to solidify at 4° C. until to use. 0.5×10^4 cells as a single cell suspension were suspended in prewarmed (37° C.) of the same media, 4 ml of 0.5% SeaPlaque agarose was then added, and this suspension then plated as the top layer by adding it dropwise to the solidified bottom layer plates. Plates were cooled for 2 hours, and then transferred to a 37° C. humidified incubator. Two days after plating, media containing control vehicle, 1 nM estradiol, 100 nM 4-OH-Tam, 100 nM OHT plus 10 nM ICI, or 100 nM OHT plus 20 nM […] was added to the top cell layer, and the appropriate media was replaced every two days. After 14 days, the colonies were fixed, and the colony number of colonies >50 cells from quadruplicate assays were then counted. The data shown is the mean colony number of four plates, and is representative of two independent experiments.
In pancreatic cells, ectopic expression of MKP3 is reported to result in a suppression of cell growth (Fuqua et al., 2003). Thus, the growth characteristics of the MCF-7 stable MKP3 transfectants under different hormonal conditions were investigated using anchorageindependent soft agar assay (FIG. 4B).

The test system of the next test is MCF-7-MKP3 xenografts. The test is described as follows: Xenograft growth of MCF-7 vector control and MKP3-transfected cells in athymic nude mice. Format: in vivo. As for the experimental part: MCF-7 vector control and MKP3-transfected cells were established as xenografts in ovariectomized 5- to 6-week-old BALB/c athymic nude mice (Harlan Sprague Dawley, Madison, Wis.) supplemented with 0.25-mg 21-day-release E2 pellets (Innovative Research, Sarasota, Fla.) by inoculating the mice subcutaneously with 5×10^6 cells, as described previously (Osborne et al., 1995). […] Tumor growth was assessed and tumor volumes were measured as described previously (Osborne et al., 1995). Mice were anesthetized with isoflurane before tumor removal; tumor tissues were kept at […] for later analyses. Animal care was in accordance with institutional guidelines.
To analyze the endocrine sensitivity of the MKP3-overexpressing cells in more detail in vivo, the ability of MCF-7-vector control 1 and MCF-7-MKP3-2 transfectants to form tumors in athymic mice was examined. Xenografts were established in ovariectomized mice supplemented with estrogen for 21 days. […] This was examined by fitting the data in an exponential growth model, and testing whether growth rates were different between the groups; the analyses were done separately for estrogen-treated (FIG. 4C, left panel) and Tam-treated animals (right panel). There was no difference in the estrogen-stimulated growth of the MCF-7-vector control and MKP3-overexpressing cells (P=0.52).

Another test concerns ERK 1,2 MAPK. The test is described as follows: Immunoblot of phospho-MAPK in MCF-7 transfectants. It is filed as cell-based, human. As to conditions: MKP3-overexpressing MCF-7 cells; 2 hours, 100 nM. Here is the method:
as §1
MAPK activity is tightly regulated by phosphorylation and dephosphorylation. MKP3 participates in a bidirectional regulatory loop with ERK2 MAPK, whereby ERK2 substrate binding is associated with catalytic activation of MKP3, and activated MKP3 negatively regulates pERK2 (Camps et al., 1998). […] Immunoblot analysis with anti-V5 was used to detect ectopic MKP3 expression in the two MKP3 transfectants (FIG. 5A, top panel). FIGS. 5B and 5C provide quantitation of results in FIG. 5A.

In test [2] the test system is progesterone receptor (PR) A and B forms. The test is described as follows: Immunoblot of PR-A and PR-B in MCF-7 transfectants. Format: cell-based, human. Here is the method: as §1
As expected with two hours of estrogen treatment, no induction of the two PR isoforms were detected in either the control vector (Con 1 and 2), or in the MKP3-transfected cells (FIG. 11A). […]

For `C[C@]12CC[C@@H]3c4ccc(O)cc4CC[C@H]3[C@@H]1CC[C@@H]2O` [E2, 17β-Estradiol], the “total ERα protein level” value in the test with ERα was “Down regulation”. For the same compound, the “number of colonies in soft agar” value in test [1] is “increased the number of colonies”. In addition, the “tumor growth rate, MKP3-overexpressing versus vector control xenografts” value with MCF-7-MKP3 xenografts (estrogen-treated animals, P=0.52) is “no difference”. In addition, the “levels of pMAPK” value in the test with ERK 1,2 MAPK is recorded as “lowest”. Further, in test [2] (two hours of treatment, control vector and MKP3-transfected cells), the “induction of the two PR isoforms” value was “no induction”.

Regarding `CC/C(=C(\c1ccccc1)c1ccc(OCCN(C)C)cc1)c1ccccc1` [Tam, tamoxifen], the “phosphorylation at ERα serine 118” value with ERα (MKP3 transfectants, 2 hours) is recorded as “highly induced”. Further, in the test with ERα, the “total ERα protein level” value is reported as “stabilization”. Also, the “number of colonies in soft agar” value in test [1] was “reduced the number of colonies”. Besides, the “tumor growth rate, MKP3-expressing versus vector control xenografts” value with MCF-7-MKP3 xenografts (estrogen withdrawal plus tamoxifen citrate 500 μg/animal s.c. 5 days/week, P=0.047) is listed as “significantly increased”. For the same compound, the “levels of pMAPK” value with ERK 1,2 MAPK is reported as “highest activation of MAPK”. For the same compound, the PR-B levels result in test [2] (two MKP3 transfectants, not observed in control MCF-7 transfectants) was “striking diminution”.
